Results as given in publication PMC9387934, “Randomized single oral dose phase 1 study of safety, tolerability, and pharmacokinetics of Iminosugar UV-4 Hydrochloride (UV-4B) in healthy subjects” (PLoS Neglected Tropical Diseases, 2022).
Counter-ions that a name gives are not always drawn.

Assay: Phase 1a single ascending dose study: UV-4 plasma concentrations and PK parameters (LC-MS/MS, noncompartmental)
Format: in vivo
Settings: for Tmax: median
Experimental: UV-4 ((2R,3R,4R,5S)-2-(hydroxymethyl)-1-(9-methoxynonyl)piperidine-3,4,5-triol, also called N-(9’-methoxynonyl)-1-deoxynojirimycin, or MON-DNJ) hydrochloride was evaluated in a first-in-human, randomized, single-center, double-blind, placebo-controlled, parallel group, single ascending dose Phase 1a clinical trial in healthy subjects (Figs 1 and 2, ClinicalTrials.gov Identifier NCT02061358 https://clinicaltrials.gov/ct2/show/NCT02061358). The primary objective was to determine the safety and tolerability of a single-ascending oral dose of UV-4 hydrochloride (Fig 3). […] The secondary objective was to determine PK parameters describing absorption and elimination of UV-4 following a single oral dose of UV-4 hydrochloride. Eight cohorts of eight subjects each were enrolled and completed the study. In each cohort, six subjects received UV-4 as the hydrochloride; two received placebo. Subjects were screened against study eligibility criteria up to four weeks (Days -28 to -2) before admission to the clinic (Day -1). Dosing was performed on an inpatient basis. Subjects remained in clinic for 48 hours post-dosing for PK sample collection and safety assessments and were discharged from the clinic on Day 3. Subjects returned to the clinic on Day 4 for additional safety assessments, then again on Day 9 ± 1 for a final follow-up visit.
Eligible subjects were healthy males and females, age 18–45 years, with a body mass index between 18 and 30 kg/m^2 inclusive and a minimum body weight of 60 kg. Subjects were considered healthy based on medical history, physical exam, vital signs, 12-lead electrocardiogram (ECG), clinical laboratory tests (hematology, blood chemistry, urinalysis), viral serology, and drug and alcohol screening. Male and female subjects of childbearing potential were required to use adequate contraception over the course of the clinical trial. […] Only subjects who met all inclusion and none of the exclusion criteria prior to administration of the investigational product were enrolled into the study (no exemptions were granted). A total of 64 subjects were enrolled (eight cohorts of eight subjects each). In each of the eight cohorts, six subjects were randomized to receive a single dose of UV-4 (3 to 1000 mg, depending on cohort) as the hydrochloride salt, and two subjects to receive placebo. Cohort size of six active subjects was based on analysis that increasing cohort size above six in a first-in-human study gains little in the ability to observe a drug induced event, and results in observing more events that are not related to study drug. Two of the eight subjects in each cohort (sentinel subjects; one active and one placebo) received their doses at least 48 h before the remaining subjects in each cohort.
On each day of use, bulk drug substance (UV-4B for solubilization, SAI Life Sciences Ltd. Telangana, India) was removed from a single-use container, weighed at the study center, and solubilized in 20 mL sterile water for injection (SWFI) (Hospira Inc. Illinois, United States of America). Weight of solid drug substance was converted to dose of UV-4 by applying purity and salt correction factor per pharmacy manual when preparing the dosing solution. UV-4B solution was administered orally with 10 mL of taste-masking agent, OraSweet-SF (Paddock Laboratories LLC, Minneapolis, United States of America) in a total volume of 30 mL, to assist in maintaining study blinding. Placebo was SWFI (20 mL) plus OraSweet-SF (10 mL). Concentrations and doses were calculated and expressed as the active free base form, UV-4. This methodology is consistent with USP<1121>, which recommends that the strength of a drug product or preparation is expressed in terms of the active moiety. Following consumption of active or placebo solution, the dosing container was rinsed with 50 mL of tap water also consumed by subjects. […]

[1] = 3 mg single oral dose, Geo Mean
[2] = 10 mg single oral dose, Ar Mean
[3] = 10 mg single oral dose, Geo Mean
[4] = 30 mg single oral dose, Ar Mean
[5] = 30 mg single oral dose, Geo Mean
[6] = 90 mg single oral dose, Ar Mean
[7] = 90 mg single oral dose, Geo Mean
[8] = 180 mg single oral dose, Ar Mean
[9] = 180 mg single oral dose, Geo Mean
[10] = 360 mg single oral dose, Ar Mean
[11] = 360 mg single oral dose, Geo Mean

Compound: COCCCCCCCCCN1C[C@H](O)[C@@H](O)[C@H](O)[C@H]1CO [UV-4B, N-(9’-methoxynonyl)-1-deoxynojirimycin hydrochloride]
- AUC(0-inf) (3 mg single oral dose, Ar Mean): 95.6 ng·h/mL
- CL/F (3 mg single oral dose, Ar Mean): 32.1 L/h
- Cmax (3 mg single oral dose, Ar Mean): 22.4 ng/mL
- DNAUC(0-inf) (3 mg single oral dose, Ar Mean): 31.9 ng·h/mL/mg
- DNCmax (3 mg single oral dose, Ar Mean): 7.45 ng/mL/mg
- t1/2 (3 mg single oral dose, Ar Mean): 10.7 h
- CL/F [1]: 31.7 L/h
- Cmax [1]: 22.1 ng/mL
- DNAUC(0-inf) [1]: 31.5 ng·h/mL/mg
- DNCmax [1]: 7.38 ng/mL/mg
- t1/2 [1]: 10.3 h
- Tmax (3 mg single oral dose): 30 min
- CL/F [2]: 24.3 L/h
- Cmax [2]: 84.6 ng/mL
- DNAUC(0-inf) [2]: 43.1 ng·h/mL/mg
- DNCmax [2]: 8.46 ng/mL/mg
- t1/2 [2]: 12.0 h
- CL/F [3]: 23.8 L/h
- Cmax [3]: 82.6 ng/mL
- DNAUC(0-inf) [3]: 42.0 ng·h/mL/mg
- DNCmax [3]: 8.26 ng/mL/mg
- t1/2 [3]: 11.9 h
- Tmax (10 mg single oral dose): 60 min
- CL/F [4]: 24.0 L/h
- Cmax [4]: 293 ng/mL
- DNAUC(0-inf) [4]: 42.0 ng·h/mL/mg
- DNCmax [4]: 9.76 ng/mL/mg
- t1/2 [4]: 10.0 h
- CL/F [5]: 23.9 L/h
- Cmax [5]: 289 ng/mL
- DNAUC(0-inf) [5]: 41.8 ng·h/mL/mg
- DNCmax [5]: 9.64 ng/mL/mg
- t1/2 [5]: 9.98 h
- Tmax (30 mg single oral dose): 30 min
- CL/F [6]: 24.5 L/h
- Cmax [6]: 946 ng/mL
- DNAUC(0-inf) [6]: 41.4 ng·h/mL/mg
- DNCmax [6]: 10.5 ng/mL/mg
- t1/2 [6]: 10.4 h
- CL/F [7]: 24.3 L/h
- Cmax [7]: 900 ng/mL
- DNAUC(0-inf) [7]: 41.1 ng·h/mL/mg
- DNCmax [7]: 10.0 ng/mL/mg
- t1/2 [7]: 10.2 h
- Tmax (90 mg single oral dose): 30 min
- CL/F [8]: 25.4 L/h
- Cmax [8]: 2150 ng/mL
- DNAUC(0-inf) [8]: 39.5 ng·h/mL/mg
- DNCmax [8]: 12.0 ng/mL/mg
- t1/2 [8]: 8.71 h
- CL/F [9]: 25.4 L/h
- Cmax [9]: 2060 ng/mL
- DNAUC(0-inf) [9]: 39.4 ng·h/mL/mg
- DNCmax [9]: 11.5 ng/mL/mg
- t1/2 [9]: 8.66 h
- Tmax (180 mg single oral dose): 45 min
- CL/F [10]: 26.5 L/h
- Cmax [10]: 4570 ng/mL
- DNAUC(0-inf) [10]: 38.4 ng·h/mL/mg
- DNCmax [10]: 12.7 ng/mL/mg
- t1/2 [10]: 8.14 h
- CL/F [11]: 26.3 L/h
- Cmax [11]: 4490 ng/mL
- DNAUC(0-inf) [11]: 38.1 ng·h/mL/mg
- DNCmax [11]: 12.5 ng/mL/mg
- t1/2 [11]: 8.11 h
- Tmax (360 mg single oral dose): 30 min
- CL/F (720 mg single oral dose, Ar Mean): 22.1 L/h
